This assay deals with T1, Human recombinant MAO-B (Homo sapiens, UniProt P27338).
T1 construct: host or cells: insect cells
T1 sequence (P27338 1-520): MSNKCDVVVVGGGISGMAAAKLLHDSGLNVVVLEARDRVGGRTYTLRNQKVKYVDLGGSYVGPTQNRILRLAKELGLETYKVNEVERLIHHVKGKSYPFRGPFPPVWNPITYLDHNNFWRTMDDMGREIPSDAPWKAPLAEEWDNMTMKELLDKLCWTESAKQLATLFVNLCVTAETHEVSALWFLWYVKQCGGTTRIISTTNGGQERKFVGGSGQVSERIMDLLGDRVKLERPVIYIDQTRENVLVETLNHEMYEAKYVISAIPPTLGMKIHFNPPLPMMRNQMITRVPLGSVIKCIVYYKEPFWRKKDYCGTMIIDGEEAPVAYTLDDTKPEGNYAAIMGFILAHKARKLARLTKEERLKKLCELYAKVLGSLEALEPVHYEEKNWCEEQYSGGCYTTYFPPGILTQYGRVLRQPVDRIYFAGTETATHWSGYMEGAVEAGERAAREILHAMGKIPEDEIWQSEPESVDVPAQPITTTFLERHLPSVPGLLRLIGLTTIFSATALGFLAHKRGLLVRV
In words: MAO-B enzymatic assay (fluorometric, kynuramine). Format: biochemical. Particulars: human recombinant MAO-B expressed in insect cells; kynuramine substrate; values given as bins; read-out: MAO-B (pEC50) (converted). As for the experimental part: The MAO enzymatic assay was performed according to the fluorometric method described by Matsumoto and colleagues (Matsumoto et al., Clin. Biochem. 1985, 18, 126-129) with the following modifications. Human recombinant MAO-A and MAO-B expressed in insect cells were used. For both assays, test compound and/or vehicle were preincubated with purified enzyme in phosphate buffer pH 7.4 for 15 minutes at 37° C. The reaction was initiated by addition of […] kynuramine. Following a 60 minute incubation period, the reaction was terminated by the addition of 6 N NaOH. The amount of 4-hydroxyquinoline that formed was determined by spectrofluorimetrically at 325 nm/465 nm.
Results were converted to percent inhibition, and the EC50 (M) for each reaction was determined using the XLfit program from IDBS (ID Business Solutions Ltd., 2 Occam Court, Surrey Research Park, Guildford, Surrey, GU2 7QB UK). The EC50 represents the concentration of a compound where 50% of its maximal effect is observed. The pEC50 is defined as the negative logarithm of the EC50; a higher pEC50 value therefore corresponds to higher potency in the assay.
Representative compounds of the invention were evaluated in the MAO-B enzymatic assay. Typically, the compounds of the invention show MAO-B inhibitory properties at a concentration of 0.1 to 10 μM, typically at 5-100%.
As depicted in the following Table, these inhibitory properties were mirrored by pEC50 values ranging from 5 (meaning 10^−5 M or 10 μM) to greater than 7 (meaning less than 10^−7 M or 0.1 μM).

In the case of `CCOC(=O)c1cnc2cc(OCc3cc(F)cc(F)c3)ccc2c1` [Example 15, Ethyl 7-((3,5-difluorobenzyl)oxy)quinoline-3-carboxylate], the EC50 is less than 100 nM.
For the molecule `OCc1cnc2cc(OCc3cccc(Cl)c3)ccc2c1` [Example 35, (7-((3-Chlorobenzyl)oxy)quinolin-3-yl)methanol], the EC50 was less than 100 nM.
Regarding `CC(C)(O)c1cnc2cc(OCc3cccc(Cl)c3)ccc2c1` [Example 28, 2-(7-((3-Chlorobenzyl)oxy)quinolin-3-yl)propan-2-ol], the EC50 is less than 100 nM.
For `OCCc1cnc2cc(OCc3cccc(Cl)c3)ccc2c1` [Example 56, 2-(7-((3-Chlorobenzyl)oxy)quinolin-3-yl)ethanol] the value was less than 100 nM; for `CCOC(=O)c1cnc2cc(OCc3cccc(F)c3)ccc2c1` [Example 4, Ethyl 7-[(3-fluorophenyl)methoxy]quinoline-3-carboxylate], less than 100 nM.
In the case of `CCOC(=O)C(C)(C)c1cnc2cc(OCc3cccc(Cl)c3)ccc2c1` [Example 59, Ethyl 2-(7-((3-chlorobenzyl)oxy)quinolin-3-yl)-2-methylpropanoate] it was 100 to 1000 nM.
For `CC(C)(O)c1cnc2cc(OCc3ccc(F)cc3)ccc2c1` [Example 27, 2-(7-((4-Fluorobenzyl)oxy)quinolin-3-yl)propan-2-ol] the value was less than 100 nM.

For the origin of these results see patent publication US9102674B2, “Substituted naphthyridine and quinoline compounds as MAO inhibitors” (DART NEUROSCIENCE (CAYMAN) LTD., priority 2013, dated 2015).
